The test system of series [1] is TZM-bl cells. Format: cell-based. The following applies: 24 h of treatment; peptides 35 µg/ml, SP 1%. As for the experimental part:
(§1) All treated cells were lysed using a Bright Glo luciferase system (Promega, Madison, WI, USA), and the ability to prevent HIV-1 infection was measured as a percent reduction in luciferase (relative light units or RLU) compared to the positive viral control (media and virus only). Metabolic activity of the cells was verified by a tetrazolium-based (MTT) assay according to manufacturer's instructions (R&D Systems, Minneapolis, MN, USA), while cytotoxicity was measured using the standard trypan blue dye exclusion assay.

Series [2] deals with TZM-bl cells. In words: MTT metabolic assay. In kind it is cell-based. The following applies: cells treated for 24 h; peptides 35 µg/ml, SP 1%. As for the experimental part: as §1
A general note: Formazan colour is commonly taken as a measure of viable cells.

The conditions of series [3]: 300 rpm, 37°C, Tricine-SDS gel; for stability in SP containing protease inhibitor (PI) cocktail: SP spiked with broad spectrum PI cocktail, 1–24 h; for time to complete degradation / time to partial degradation: three volumes peptide (1 mg/ml) with one volume whole SP, Coomassie blue. The procedure: (§2) All incubation sample tubes were pulsed briefly in a microcentrifuge, and immediately stored at −20°C. Samples were electrophoresed on mini-16% Tricine-SDS gels, and stained.

The subject of a further series is PBMCs. The following applies: 35 µg/ml with or without 1% SP; n = 3. The procedure: (§3) Cells were then washed, and resuspended in fresh media with sample treatments for 5–7 days. Supernatants were collected on alternate days, and cells in culture were resuspended in sample or media alone. To ensure cell viability, standard trypan blue dye exclusion assays were performed. To quantify viral inhibition, the amount of p24gag was measured in cell supernatants with an ELISA (PerkinElmer, Waltham, MA, USA).
(§4) The antiviral, metabolic, and cytotoxicity experiments were performed at least three times, and each of the assays were performed in triplicate or quadruplicate. For the TZM-bl antiviral assays the infected vehicle-only controls were averaged and set as 100% infection. For the PM1 and PBMC antiviral assays, p24 ELISA quantification established the infected vehicle-only control as 100% infection. […] Individual treatments were analyzed by either one-way ANOVA with Tukey's multiple comparisons post-test or two-tailed unpaired t-test.

For a further series, the system named is PM1 cells. The following applies: 35 µg/ml with or without 1% SP; n = 3. As for the experimental part: as §3, §4
In series [4] the test system is trypsin. In words: trypsin diluted with sterile PBS. The following applies: 37°C, up to 24 h.
Series [5] in a line: SP spiked with a broad spectrum protease inhibitor (PI). The following applies: human, 37°C, up to 24 h.
The target of the next series is prostasin (Homo sapiens, UniProt Q16651). As for the experimental part: as §2
Chain of prostasin (Q16651 33-343): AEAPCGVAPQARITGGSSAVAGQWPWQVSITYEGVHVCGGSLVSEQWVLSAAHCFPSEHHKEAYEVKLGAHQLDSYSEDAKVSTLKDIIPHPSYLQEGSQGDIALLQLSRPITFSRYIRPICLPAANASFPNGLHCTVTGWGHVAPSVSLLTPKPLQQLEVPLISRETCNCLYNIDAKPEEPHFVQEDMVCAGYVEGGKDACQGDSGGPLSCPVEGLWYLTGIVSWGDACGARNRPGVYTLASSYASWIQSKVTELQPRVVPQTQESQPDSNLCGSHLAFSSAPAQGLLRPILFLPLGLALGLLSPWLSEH
(§5) Digested peptide fragments from protease incubations underwent MALDI-TOF/TOF MS/MS analysis using the Model Ultraflex III mass spectrometer (Bruker Daltonics, Billerica, MA, USA) equipped with LIFT capability. Samples were desalted using C18 ZipTips (Millipore, Bedford, MA, USA) and were analyzed in positive reflector mode. External calibration was performed using a mass standards kit for proteomics analyzer (Applied Biosystems). Samples also underwent analysis via nano-LC ESI-TOF MS/MS using the maXis ESI-Q-TOF (Bruker Daltonics) mass spectrometer online with the Dionex model U3000 nanobore HPLC [28]. Data were analyzed with the Sprot database using the Bruker ProteinScape program version 2.1 and Mascot program version 2.2 with enzyme setting to semiTrypsin.

Series [6] addresses prostate-specific antigen (PSA) (Homo sapiens, UniProt P07288). The procedure:
as §2, §5

Series [7] deals with trypsin. The procedure: as §2, §5
In the next series the target is matriptase (Homo sapiens, UniProt Q9Y5Y6). As for the experimental part:
as §2, §5

The mark [8] stands for this setting: MALDI TOF/TOF MS/MS and nano-LC-MS/MS.

Entries after “also recorded” stand apart in the source; their conditions may differ. Where no end group is shown, it is not given here.

Three sequences from PMC3024420 (PLoS ONE, 2011) can be followed below.

Chain of prostate-specific antigen (PSA) (P07288 25-261): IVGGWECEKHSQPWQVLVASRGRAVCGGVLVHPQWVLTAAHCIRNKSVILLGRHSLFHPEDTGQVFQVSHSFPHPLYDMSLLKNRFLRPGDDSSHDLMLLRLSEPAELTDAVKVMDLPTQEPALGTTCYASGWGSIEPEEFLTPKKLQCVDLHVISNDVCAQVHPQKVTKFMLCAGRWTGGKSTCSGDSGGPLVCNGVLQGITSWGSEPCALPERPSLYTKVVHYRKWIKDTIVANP
Chain of matriptase (Q9Y5Y6 whole entry): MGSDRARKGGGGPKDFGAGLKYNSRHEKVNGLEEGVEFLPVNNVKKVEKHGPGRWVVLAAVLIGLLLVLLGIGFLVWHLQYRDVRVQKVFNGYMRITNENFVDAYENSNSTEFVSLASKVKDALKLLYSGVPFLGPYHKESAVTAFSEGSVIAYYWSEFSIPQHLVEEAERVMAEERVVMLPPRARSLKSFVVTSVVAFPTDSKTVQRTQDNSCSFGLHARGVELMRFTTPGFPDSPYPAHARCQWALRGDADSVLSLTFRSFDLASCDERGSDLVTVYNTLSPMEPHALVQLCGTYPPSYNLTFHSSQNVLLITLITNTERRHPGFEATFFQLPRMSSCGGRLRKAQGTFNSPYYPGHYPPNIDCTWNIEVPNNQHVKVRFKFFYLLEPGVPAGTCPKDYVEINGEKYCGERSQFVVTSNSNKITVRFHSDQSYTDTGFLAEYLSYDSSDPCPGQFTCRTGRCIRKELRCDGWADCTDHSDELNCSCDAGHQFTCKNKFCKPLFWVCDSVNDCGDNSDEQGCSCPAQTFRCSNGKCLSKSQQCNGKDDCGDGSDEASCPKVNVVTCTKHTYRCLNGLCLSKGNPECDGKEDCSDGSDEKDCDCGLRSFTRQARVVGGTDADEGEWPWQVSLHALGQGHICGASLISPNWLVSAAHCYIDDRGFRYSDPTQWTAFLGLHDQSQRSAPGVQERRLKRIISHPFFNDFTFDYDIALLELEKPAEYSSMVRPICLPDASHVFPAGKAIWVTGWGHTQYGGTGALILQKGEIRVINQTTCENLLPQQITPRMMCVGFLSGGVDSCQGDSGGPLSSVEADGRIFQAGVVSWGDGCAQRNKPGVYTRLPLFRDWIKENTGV

As for GIHKQKEKSRLQGGVLVNE [PAP^266], the “cytotoxicity (trypan blue)” value in the series on TZM-bl cells [1] is on record as “lack of cytotoxicity”; in the series on PBMCs, “No appreciable cytotoxicity”; in the series with PM1 cells, “No appreciable cytotoxicity”. Further, in the series on TZM-bl cells [2], the “metabolic activity of cells (MTT)” value was “no significant adverse effects to metabolic activity”. Also, the “stability in SP containing protease inhibitor (PI) cocktail” value in series [3] is recorded as “preservation”. Also, the “time to complete degradation” value in [3] is given as not above 3 h. In series [3], the “time to partial degradation” value was not above 1 h.
Take GIHKQKEKSRLQGGVLVNEILNHMKRATQIPSYKKLIMY: the fragment found entry in the series on trypsin [4] is listed as “SRLQGGVLVNEILNHMKR; also recorded: ATQIPSYK; also recorded: LQGGVLV; also recorded: RATQIPS; also recorded: ATQIPS; also recorded: LQGGVL; also recorded: LQGGV”. In addition, the not cleaved result in series [5] is on record as “preservation of the PAP peptides over time”.
Regarding “GIHKQKEKSRLQGGVLVNEILNHMKRATQIPSYKKLIMY [PAP^286]”, the “cleavage products by MS after incubation with prostasin” value at prostasin (setting [8]) was “detectable cleavage products”. For the same sequence, the degradation by prostasin entry at prostasin (PAP^286 54 µM, prostasin 1 µM in PBS, 300 rpm, 24 h, 37°C, Tricine-SDS gel, silver stain) is given as “did not effectively degrade”. In [6] (setting [8]), the “cleavage products by MS after incubation with PSA” value is listed as “detectable cleavage products”. Besides, the “degradation by PSA” value in [6] (PAP^286 54 µM (250 µg/ml), PSA 1 µM in PBS, 300 rpm, 24 h, 37°C, Tricine-SDS gel, silver stain) is recorded as “degradation of the PAP peptide with visible cleavage products”. Moreover, in series [6] (PAP^286 54 µM, PSA 1.5 µM–[…], 300 rpm, 24 h, 37°C, Tricine-SDS gel, silver stain), the “PSA concentration giving complete degradation” value is recorded as 0.75 µM. Also, the “cleavage products by MS after incubation with trypsin” value in the series with trypsin [7] (setting [8]) is on record as “detectable cleavage products”. Further, the “degradation by trypsin (positive control)” value in the series with trypsin [7] (PAP^286 54 µM, trypsin 1 µM in PBS, 300 rpm, 24 h, 37°C, Tricine-SDS gel, silver stain) was “completely degraded the peptide, with no cleavage products visualized”. Further, the “cleavage products by MS after incubation with matriptase” value at matriptase (setting [8]) is listed as “detectable cleavage products”. Further, the degradation by matriptase entry on matriptase (PAP^286 54 µM, matriptase 1 µM in PBS, 300 rpm, 24 h, 37°C, Tricine-SDS gel, silver stain) is “degradation of the PAP peptide with visible cleavage products”. For the same sequence, in series [3], the “stability in SP containing protease inhibitor (PI) cocktail” value is recorded as “preservation”, the “time to complete degradation” value was not above 3 h and the “time to partial degradation” value is recorded as not above 1 h.
